Experimental data published in patent US20260139007A1, “EPHA4 ANTAGONISTS AND USES THEREOF” (SANFORD BURNHAM PREBYS MEDICAL DISCOVERY INSTITUTE, priority 2023, published 2026).
Numbered stars: 1 amine (or outer) side, 2 acyl side, 3 side chain; on linkers, the order of the positions; unused ones are H or OH. Bridge positions count the residues as written; N and C are the ends. Square brackets hold non-standard residues; d marks the D form. Side chains are listed from the residue outwards. Peptide text beside a SMILES is read from it. * marks the point of attachment. γGlu = O=C(O)[C@H](CCC(=O)[*:2])N[*:1]; βAsp = O=C(O)[C@H](CC(=O)[*:2])N[*:1]; Lauroyl = CCCCCCCCCCCC(=O)*; Octanoyl = CCCCCCCC(=O)*; βAla = NCCC(=O)O

Experiments:
EphA4 Fc [1] = assay: ELISA inhibition of ephrin-A5 AP binding to EphA4 Fc in the presence of HSA, BSA or methyl-β-cyclodextrin; details: for effect of HSA on potency: presence vs absence of 40 mg/mL HSA, tested in parallel; for IC50: read-out: IC50 ± SE (n) by ELISA with HSA or BSA, 40 mg/mL delipidated HSA
Description: To determine whether albumin binding to the lipidated compounds affects their ability to bind EphA4, the effects of delipidated human serum albumin (HSA) on the inhibitory potency of some of the compounds were examined.

EphA4 Fc [2] = assay: ELISA measuring inhibition of ephrin-A5 AP binding to immobilized EphA4 Fc; parameters: species or system human or mouse; details: for IC50: inhibition of ephrin-A5 AP binding to EphA4 Fc, averages of all experiments, read-out: IC50 ± SE (n) by ELISA
[3] = In vivo half-life: active compound remaining in mouse blood, deduced from apparent IC50 of plasma in the EphA4-ephrinA5 ELISA; details: mouse, in vivo, ip, mouse, IP (intraperitoneal administration); read-out: In vivo half-life (converted)
Protocol: To examine the persistence of compounds in the blood circulation, an approach was devised to determine the concentration of compound in mouse blood by taking advantage of the ELISA measuring inhibition of EphA4-ephrinA5 interaction.
Lipidated compounds dissolved in DMSO were diluted in […] PBS (to a 5% final DMSO concentration) or in […] PBS supplemented with 20 or 40 mg/mL BSA or 6.5 mM methyl-β-cyclodextrin for intravenous or intraperitoneal injection. Neutral pH of the compound solution was verified before injection. PEGylated compounds were dissolved in […] PBS before intraperitoneal injection. Peptides were sterile filtered before administration. Blood from each mouse was collected at 3 different time points after compound injection, the first 2 times by retro-orbital bleeding and the third time by terminal cardiac bleeding under deep anesthesia. Red blood cells were removed by centrifugation from blood treated with heparin and the resulting plasma was frozen in aliquots.
For each time point, a dose-response curves by measuring inhibition of EphA4-ephrinA5 binding at different plasma dilutions was obtained.

Compound	IC50 (EphA4 Fc [1]) [nM]	IC50 (EphA4 Fc [2]) [nM]	also measured
CC(C)[C@@H]1NC(=O)[C@@H](NC(=O)[C@H](Cc2ccc(O)cc2)NC(=O)[C@@H]2CCCN2C(=O)[C@H](C)N)CSSC[C@@H](C(N)=O)NC(=O)[C@H](CO)NC(=O)[C@H](Cc2c[nH]c3ccccc23)NC(=O)[C@H](CO)NC(=O)CCNC(=O)[C@H](CCCCN)NC(=O)[C@H](Cc2ccc(O)cc2)NC1=O [Compound 1, APYCVYKβASWSC-NH2] (H-APYCVYK[βAla]SWSC-NH2; disulfide 4-12)	55 ± 13	67 ± 10	effect of HSA on potency (EphA4 Fc [1]): only a very small effect
CC(C)[C@@H]1NC(=O)[C@@H](NC(=O)[C@H](Cc2ccc(O)cc2)NC(=O)[C@@H]2CCCN2C(=O)[C@H](C)N)CSSC[C@@H](C(=O)NCC(=O)NCC(=O)N[C@@H](CCCCN)C(=O)NCC(N)=O)NC(=O)[C@H](CO)NC(=O)[C@H](Cc2c[nH]c3ccccc23)NC(=O)[C@H](CO)NC(=O)CCNC(=O)[C@H](CCCNC(=N)N)NC(=O)[C@H](Cc2ccc(O)cc2)NC1=O [Compound 2]	–	–	effect of HSA on potency (EphA4 Fc [1]): only a very small effect; potency compared with APY-d2 (EphA4 Fc [2]; tested in parallel in the same ELISA): not significantly different from that for APY-d2
CCCCCCCC(=O)NCCCC[C@H](NC(=O)CNC(=O)CNC(=O)[C@@H]1CSSC[C@H](NC(=O)[C@H](Cc2ccc(O)cc2)NC(=O)[C@@H]2CCCN2C(=O)CCN)C(=O)N[C@@H](C(C)C)C(=O)N[C@@H](Cc2ccc(O)cc2)C(=O)N[C@@H](CCCNC(=N)N)C(=O)NCCC(=O)N[C@@H](CO)C(=O)N[C@@H](Cc2c[nH]c3ccccc23)C(=O)N[C@@H](CO)C(=O)N1)C(=O)NCC(N)=O [Compound 7]	110 ± 30	34 ± 6	–
CCCCCCCCCCCC(=O)N[C@@H](CC(=O)NCCCC[C@@H]1NC(=O)[C@H](Cc2ccc(O)cc2)NC(=O)[C@H](C(C)C)NC(=O)[C@@H](NC(=O)[C@H](Cc2ccc(O)cc2)NC(=O)[C@@H]2CCCN2C(=O)CCN)CSSC[C@@H](C(N)=O)NC(=O)[C@H](CO)NC(=O)[C@H](Cc2c[nH]c3ccccc23)NC(=O)[C@H](CO)NC(=O)CCNC1=O)C(=O)O [Compound 10, βAPYCVYK(lauroyl-βD)βASWSC-NH2] (H-[βAla]PYCVYK([βAsp-Lauroyl])[βAla]SWSC-NH2; disulfide 4-12)	–	110 ± 10	–
CCCCCCCCCCCC(=O)N[C@@H](CCC(=O)NCCCC[C@@H]1NC(=O)[C@H](Cc2ccc(O)cc2)NC(=O)[C@H](C(C)C)NC(=O)[C@@H](NC(=O)[C@H](Cc2ccc(O)cc2)NC(=O)[C@@H]2CCCN2C(=O)CCN)CSSC[C@@H](C(N)=O)NC(=O)[C@H](CO)NC(=O)[C@H](Cc2c[nH]c3ccccc23)NC(=O)[C@H](CO)NC(=O)CCNC1=O)C(=O)O [Compound 11, βAPYCVYK(lauroyl-γE)βASWSC-NH2] (H-[βAla]PYCVYK([γGlu-Lauroyl])[βAla]SWSC-NH2; disulfide 4-12)	–	84 ± 13	half-life [3]: 30 to 60 min

Continued, in another order:

IC50 (EphA4 Fc [1]) [nM]	IC50 (EphA4 Fc [2]) [nM]	Compound	also measured
100 ± 30	–	CCCCCCCC(=O)NCCCC[C@@H]1NC(=O)[C@H](Cc2ccc(O)cc2)NC(=O)[C@H](C(C)C)NC(=O)[C@@H](NC(=O)[C@H](Cc2ccc(O)cc2)NC(=O)[C@@H]2CCCN2C(=O)CCN)CSSC[C@@H](C(N)=O)NC(=O)[C@H](CO)NC(=O)[C@H](Cc2c[nH]c3ccccc23)NC(=O)[C@H](CO)NC(=O)CCNC1=O [Compound 4, βAPYCVYK(octanoyl)βASWSC-NH2] (H-[βAla]PYCVYK(Octanoyl)[βAla]SWSC-NH2; disulfide 4-12)	–
–	390 ± 80	CCCCCCCCCCCC(=O)NCCCC[C@@H]1NC(=O)[C@H](Cc2ccc(O)cc2)NC(=O)[C@H](C(C)C)NC(=O)[C@@H](NC(=O)[C@H](Cc2ccc(O)cc2)NC(=O)[C@@H]2CCCN2C(=O)CCN)CSSC[C@@H](C(N)=O)NC(=O)[C@H](CO)NC(=O)[C@H](Cc2c[nH]c3ccccc23)NC(=O)[C@H](CO)NC(=O)CCNC1=O [Compound 8, βAPYCVYK(lauroyl)βASWSC-NH2] (H-[βAla]PYCVYK(Lauroyl)[βAla]SWSC-NH2; disulfide 4-12)	–
